Results from ChEMBL document CHEMBL1221314, “Potential anti-inflammatory phenolic glycosides from the medicinal plant Moringa oleifera fruits” (Bioorg Med Chem, 2010).

How the values were obtained:
RAW264.7 [1] = assay: Antiinflammatory activity in mouse RAW264.7 cells assessed as inhibition of LPS-induced NO production incubated 30 mins prior to LPS challenge; type: functional, cell-based
RAW264.7 [2] = assay: Antiinflammatory activity in mouse RAW264.7 cells assessed as inhibition of LPS-induced NO production at 5 uM incubated 30 mins prior to LPS challenge; type: functional
RAW264.7 [3] = assay: Antiinflammatory activity in mouse RAW264.7 cells assessed as inhibition of LPS-induced iNOS expression incubated 30 mins prior to LPS challenge by Western blotting; type: functional, cell-based
RAW264.7 [4] = assay: Cytotoxicity against mouse RAW264.7 cells after 24 hrs by SRB assay; type: cell-based; details: raw264.7, 24 h

SMILES | IC50 (RAW264.7 [1]) [µM] | inhibition at 5 µM (RAW264.7 [2]) [%] | Activity (RAW264.7 [3]) | Activity (RAW264.7 [4])
CNC(=N)NCCC[C@H](N)C(=O)O | 25.5 | – | – | –
COC(=S)NCc1ccc(O[C@@H]2O[C@@H](C)[C@H](OC(C)=O)[C@@H](O)[C@H]2O)cc1 [NIAZICIN A] | > 45 | 17.3 | – | –
C[C@@H]1O[C@@H](Oc2ccc(CN=C=S)cc2)[C@H](O)[C@H](O)[C@H]1O | 14.4 | – | Dose-dependent effect | –
COC(=S)NCc1ccc(O[C@@H]2O[C@@H](C)[C@H](O)[C@@H](O)[C@H]2O)cc1 [NIAZININ A] | > 45 | < 1 | – | –
CSC(=O)NCc1ccc(O[C@@H]2O[C@@H](C)[C@H](O)[C@@H](O)[C@H]2O)cc1 | > 45 | 24.3 | – | –
CC(=O)O[C@H]1[C@H](Oc2ccc(CN=C=S)cc2)O[C@@H](C)[C@H](O)[C@H]1O | 1.67 | – | Dose-dependent effect | Non-toxic
CC(=O)O[C@@H]1[C@@H](O)[C@@H](O)[C@H](Oc2ccc(CN=C=S)cc2)O[C@H]1C | 2.71 | – | Dose-dependent effect | Non-toxic
CC(=O)O[C@@H]1[C@@H](O)[C@H](C)O[C@@H](Oc2ccc(CN=C=S)cc2)[C@@H]1O | 2.66 | – | Dose-dependent effect | Non-toxic
C[C@@H]1O[C@@H](Oc2ccc(CC#N)cc2)[C@H](O)[C@H](O)[C@H]1O [NIAZIRIN] | > 45 | < 1 | – | –
